Measurements as given in patent US8846849B2, “Tissue sealants from plasma derived proteins” (Ethicon, Inc., priority 2011, dated 2014).

What was measured:
[1] = Hydrolysis of NHS active esters in D2O monitored by NMR; format: physicochemical; details: in D2O at 25° C.; for Estimated Time for 95% Hydrolysis / Estimated Time for 10% Hydrolysis: NMR; for k = Constant in % Hydrolysis, y = k Exp(−mx) / m = Relative Rate in % Hydrolysis, y = k Exp(−mx): x = Time
Description: The relative reactivity of the active esters was determined by monitoring the rate of hydrolytic degradation in D2O at room temperature by NMR as shown in FIG. 4.
Various NHS active esters shown in FIG. 4 are the 4-Arm-TKHEED-Diglycolate-NHS (T-Dig-NHS or T-DG-N), the 4-Arm-Quadrol-Diglycolate-NHS (Q-Dig-NHS or Q-DG-N), the 4-Arm-PEG-Diglycolate-NHS (PEG-Dig-NHS or PEG-DG-N), the 4-Arm-TKHEED-Glutarate-NHS (T-Glut-NHS or T-Glut-N), and the 2-Arm-PEG-Diacid-NHS (PEG-NHS). It was observed that diglycolate-containing esters are the fastest hydrolyzing active esters, meaning to hydrolyze more than 95% in about 30 to 60 minutes irrespective of the core structure. […] These compounds appear to hydrolyze only about 10% or less in about 80 to 100 minutes.
Hydrolysis degradation parameters are summarized in Table 1 qualitatively from the chart in FIG. 4. It is observed that the Relative Rate, m, (in the exponential equation) for all the Diglycolate-NHS esters are within about 20% of each other. However, the rates are much faster than the others; for example, T-Dig-NHS (or T-DG-N) is 144 times faster than T-Glut-NHS, and 98 times faster than PEG-NHS. The degradation profiles of cross-linker A (T-DG-NHS), B (Q-Dig-NHS) and C (PEG-Dig-NHS) correspond to the instant invention, while the crosslinking agent D (T-Glut-NHS) and E (PEG-NHS) correspond to control groups.

[2] = biological target: T1, fibrinogen (BAC-2) solution (Homo sapiens, UniProt P02671+P02675+P02679); assay: Qualitative rate of gelation of BAC-2 (fibrinogen) solution with active ester cross-linker; details: weight ratio cross-linker to fibrinogen 1:1, fibrinogen approx. 70 mg/ml, room temperature
T1 construct: Powdered BAC-2, a blood plasma derived product was obtained from Omrix BioPharmaceuticals; purchased Omrix BioPharmaceuticals; host or cells: blood plasma
T1 sequence (P02671 20-629 limits assumed): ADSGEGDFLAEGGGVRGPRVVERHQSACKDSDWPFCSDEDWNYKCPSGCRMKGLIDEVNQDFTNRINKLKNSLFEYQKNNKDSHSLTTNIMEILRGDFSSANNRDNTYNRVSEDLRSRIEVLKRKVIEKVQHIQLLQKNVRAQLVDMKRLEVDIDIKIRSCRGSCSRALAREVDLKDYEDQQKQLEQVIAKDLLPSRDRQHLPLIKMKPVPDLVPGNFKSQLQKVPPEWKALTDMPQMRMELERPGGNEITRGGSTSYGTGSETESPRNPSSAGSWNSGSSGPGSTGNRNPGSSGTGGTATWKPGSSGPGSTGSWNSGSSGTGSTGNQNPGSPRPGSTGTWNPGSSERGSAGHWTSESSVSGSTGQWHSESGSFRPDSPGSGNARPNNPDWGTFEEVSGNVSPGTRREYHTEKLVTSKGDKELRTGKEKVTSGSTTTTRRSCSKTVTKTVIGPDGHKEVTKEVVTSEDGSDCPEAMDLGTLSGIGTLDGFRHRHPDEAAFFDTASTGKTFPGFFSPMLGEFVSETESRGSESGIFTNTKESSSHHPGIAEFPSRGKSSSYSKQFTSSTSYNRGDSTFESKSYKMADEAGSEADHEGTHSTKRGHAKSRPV
T1 sequence (P02675 31-491): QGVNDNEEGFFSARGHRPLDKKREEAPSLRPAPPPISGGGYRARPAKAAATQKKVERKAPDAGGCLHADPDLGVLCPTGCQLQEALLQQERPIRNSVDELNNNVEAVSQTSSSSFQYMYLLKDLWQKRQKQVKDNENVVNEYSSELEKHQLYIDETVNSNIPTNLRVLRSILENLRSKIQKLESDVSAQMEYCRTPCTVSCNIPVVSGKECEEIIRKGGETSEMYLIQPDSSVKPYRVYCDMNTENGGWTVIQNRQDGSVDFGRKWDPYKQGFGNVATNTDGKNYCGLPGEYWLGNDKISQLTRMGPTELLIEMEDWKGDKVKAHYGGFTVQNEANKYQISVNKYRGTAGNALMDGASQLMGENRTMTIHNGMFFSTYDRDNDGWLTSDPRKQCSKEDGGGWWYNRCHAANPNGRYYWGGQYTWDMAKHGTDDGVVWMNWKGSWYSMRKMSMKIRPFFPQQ
T1 sequence (P02679 27-433 limits assumed): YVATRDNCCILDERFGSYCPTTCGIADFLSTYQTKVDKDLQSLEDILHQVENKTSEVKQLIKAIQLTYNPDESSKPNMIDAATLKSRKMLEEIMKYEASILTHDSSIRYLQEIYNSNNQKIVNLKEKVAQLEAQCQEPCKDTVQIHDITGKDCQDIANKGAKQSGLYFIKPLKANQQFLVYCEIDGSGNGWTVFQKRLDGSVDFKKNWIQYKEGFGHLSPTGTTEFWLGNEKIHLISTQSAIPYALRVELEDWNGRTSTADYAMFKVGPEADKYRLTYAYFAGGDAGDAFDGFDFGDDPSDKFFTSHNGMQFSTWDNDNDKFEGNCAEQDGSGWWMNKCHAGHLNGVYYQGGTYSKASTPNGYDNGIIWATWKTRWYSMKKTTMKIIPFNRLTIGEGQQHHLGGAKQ
Description: Sealants based on the inventive compositions were prepared by using an aqueous solution of BAC-2 (about 7% fibrinogen, or 70 mg/ml) where the crosslinking agent in the form of a powder was added at a selected composition and mixed well for 1 to 2 minutes up to gellation.
Crosslinking agents A, B, C correspond to the instant invention, while D and E correspond to control groups. The solid NHS ester, preferably in a powder form, was added to the BAC-2 solution at room temperature in a test tube at a weight ratio of 1 to 1 for active ester to fibrinogen, and mixed well. The time for gelation, defined qualitatively as the point when the BAC-2 solution in the test tube no longer flowed, was noted and recorded as shown in Table 2.
Sealants were prepared using an aqueous solution of fibrinogen (about 7% solution), where powder of either T-DG-N or PEG-DG-N was added at a selected composition based on the fibrinogen content. […] The in vitro rate of degradation of the hydrogel (or sealant) was determined in an enzymatic medium of plasmin at a concentration of 3.3 microgram/ml by determining the % clot remaining by gravimetric method after a given duration of exposure.

[3] = Water solubility of diglycolate-NHS esters; format: physicochemical
[4] = Hydrolytic degradation of sealant in de-ionized water at 37° C. by pH profiling; format: physicochemical; details: deionized water 37° C., constant pH 7.4
Description: Sealant with ester links undergoing hydrolytic degradation in PBS at 37° C. was evaluated by the % weight loss method. Sealant degradation in de-ionized (DI) water causes the pH level of the solution to […], which can be titrated by addition of a basic compound to maintain a constant pH of 7.4 at 37° C. until such time that no more basic compound was needed to maintain a neutral solution; the total time for titration was noted.
As the Diglycolate-NHS/BAC-2 system is a hydrogel of fibrinogen with ester based cross-links, its degradation was followed in the pH profiler of de-ionized water at 37° C., where a base was added to neutralize the acid formed upon ester hydrolysis with time, to maintain a constant neutral pH. Cross-linker weight % was varied based on fibrinogen content.

Compound	Estimated Time for 95% Hydrolysis [1]	k = Constant in % Hydrolysis, y = k Exp(−mx) [1]	m = Relative Rate in % Hydrolysis, y = k Exp(−mx) [1]	Qualitative observation of Gelation [2]	water solubility [3]	Estimated Time for 10% Hydrolysis [1]	hydrolysis rate, times faster than PEG-NHS [1]	hydrolysis rate, times faster than T-Glut-NHS [1]	Longevity of sealant, Avg. ([4]; NHS cross-linker 30 wt % based on fibrinogen)	Longevity of sealant, Avg. ([4]; NHS cross-linker 50 wt % based on fibrinogen)	Longevity of sealant, Avg. ([4]; NHS cross-linker 60 wt % based on fibrinogen)
4-Arm-Quadrol-Diglycolate-NHS [Q-DG-N]	60 min	107	0.084	1 to 2 min	about 25%	–	–	–	–	–	–
4-Arm-TKHEED-Glutarate-NHS [T-Glut-NHS, reference compound]	–	65	0.00072	30 to 60 min	–	100 min	–	–	–	–	–
O=C(CCOCCOCCOCCOCCOCCOCCOCCOCCOCCC(=O)ON1C(=O)CCC1=O)ON1C(=O)CCC1=O [PEG-NHS, Bis-dPEG(9)-NHS ester, reference compound]	–	98	0.00106	15 to 30 min	–	80 min	–	–	–	–	–
O=C(COCC(=O)ON1C(=O)CCC1=O)OCCN(CCOC(=O)COCC(=O)ON1C(=O)CCC1=O)CCN(CCOC(=O)COCC(=O)ON1C(=O)CCC1=O)CCOC(=O)COCC(=O)ON1C(=O)CCC1=O [T-DG-N, 4-Arm TKHEED-tetra Diglycolate-tetra-NHS ester]	30 min	62	0.104	1 to 2 min	more than 85%	–	98 times	144 times	2.7 days	7.1 days	16.7 days
